Assay results taken from US20150126464A1, “THERAPEUTIC DRUG AND THERAPEUTIC METHOD FOR NEUROLOGICAL DISEASES INCLUDING ALZHEIMER'S DISEASE ASSOCIATED WITH 1,25D3-MARRS” (priority 2013, published 2015).

Tests used:
[1] = tested on: rat cortical neurons (SD E18); test: Axon density after Aβ (1-42)-induced axonal atrophy with 1,25D3-MARRS neutralizing antibody; assay type: cell-based; details: after Aβ (1-42) for 3 days; Ab099 clone 1:500; diosgenin 0.1 μM or 1 μM for 5 days
Experimental: Aβ (1-42) was incubated at 37° C. for four days for aggregation beforehand. […] After the 3-day treatment, a control antibody (normal rabbit IgG, 1:5000) was added to the cells, and the cells were incubated for 10 minutes and further treated with diosgenin (0.1 μM) for 5 days.
Seven to nine images were captured.

[2] = target: T1, 1,25D3-MARRS (Rattus norvegicus, UniProt P11598); test: Detection of luminescence resulting from 1,25D3-MARRS binding (cell surface-binding DHVD3); details: diosgenin 0.1 μM or 10 μM added with DHVD3 0.1 μM, 10 minutes
T1 construct: endogenous in cells; host or cells: primary cultured rat cortical neurons (SD, E17)
T1 sequence (P11598 25-505): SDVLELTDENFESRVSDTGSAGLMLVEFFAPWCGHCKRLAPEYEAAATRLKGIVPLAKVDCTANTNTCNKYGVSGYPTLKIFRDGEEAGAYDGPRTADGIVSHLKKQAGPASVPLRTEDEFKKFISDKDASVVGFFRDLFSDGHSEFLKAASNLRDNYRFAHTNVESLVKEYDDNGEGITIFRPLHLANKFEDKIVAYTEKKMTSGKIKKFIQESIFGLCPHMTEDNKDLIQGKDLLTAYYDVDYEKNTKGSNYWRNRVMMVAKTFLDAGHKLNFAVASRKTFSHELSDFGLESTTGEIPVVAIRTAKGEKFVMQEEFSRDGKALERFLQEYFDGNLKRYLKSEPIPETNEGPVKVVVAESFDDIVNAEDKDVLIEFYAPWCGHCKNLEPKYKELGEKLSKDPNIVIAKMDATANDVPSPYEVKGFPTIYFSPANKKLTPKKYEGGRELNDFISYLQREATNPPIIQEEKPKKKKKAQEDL
From the text: Embryos were removed from pregnant Sprague-Dawley rats (Japan SLC, Shizuoka, Japan) at 17 days of gestation. The cortices were dissected, and the dura mater was removed.
Primary cultured cortical neurons (SD, E17) were harvested into a 96-well white plate at a density of 0.5×10^5 cells/well. […] Horse radish peroxidase-conjugated goat anti-mouse IgG (1:2000) was used as a secondary antibody. The chemiluminescence of the antigen-antibody complex was detected using a GENios multi-plate reader (Tecan, Mannedorf, Zurich, Switzerland).

[3] = tested on: normal mice; test: Novel object recognition test in normal mice; assay type: in vivo, mouse
Experimental: Diosgenin (Wako Pure Chemical Industries, Ltd., Osaka, Japan) was dissolved in ethanol at 10 times the final concentration to give a stock solution, and the stock solution was diluted in a 5% aqueous solution of glucose to the final concentration. The diosgenin solution was intraperitoneally administered to normal mice (ddY mice, male, 6 weeks old) once a day (10 μmol/kg/day) for 5 or 6 days. One hour after the last administration, each mouse was housed in a separate open-field box made of polyvinyl chloride (33 cm×28 cm; height: 26.5 cm), habituated to the environment for 10 minutes, and used in the test.
Using the mice of Example 8 and Comparative Example 11, a novel object recognition test was performed to evaluate the object recognition memory. Testing was carried out in a dimly illuminated room (100 lux). The test was performed as described in Joyashiki, E. et sl., Int J Neurosci, 121, 181-190, 2011 and Tohda, C. et al., Int J Neurosci, 121, 641-648, 2011, written by the inventors and others, except that the time interval between a training session and a test session was 48 hours. As a locomotion index, the path of each mouse was tracked using a digital camera system. The distance each mouse traveled during the 10 minutes was analyzed as locomotion activity with EthoVision 3.0 (Noldus, Wageningen, The Netherlands).
The diosgenin solution was intraperitoneally administered to normal mice (C57BL/6, male, 8 weeks old) (100 μmol/kg/day) for 14 days. On the day after the 14th administration, the mice were used in the test.
Using the mice of Example 9 and Comparative Example 12, the novel object recognition test was performed. The test was performed under the conditions as described above.
Dioscin in an amount of 30 μmol/kg/day was orally administered to normal mice (ddY mice, male, 6 weeks old) for 4 days. Dioscin (Chromadex, Irvine, Calif., USA) was dissolved in ethanol at 10 times the final concentration to give a stock solution, and the stock solution was diluted in a 5% aqueous solution of glucose to the final concentration. […]

`C[C@@H]1CC[C@@]2(OC1)O[C@H]1C[C@H]3[C@@H]4CC=C5C[C@@H](O)CC[C@]5(C)[C@H]4CC[C@]3(C)[C@H]1[C@@H]2C` [diosgenin] was tested, and the “diosgenin-induced axonal growth in cells where 1,25D3-MARRS was inhibited by the neutralizing antibody” value [1] was “significantly suppressed”, the “immunochemiluminescence intensity of cell surface-bound DHVD3 (replacement of DHVD3)” value [2] was “remarkably decreased” and the object recognition memory ([3]; normal C57BL/6 mice, diosgenin 100 μmol/kg/day i.p. 14 days) was “significantly improved”. The “behavior index of exploratory behavior for the novel object” value ([3]; normal ddY mice, diosgenin 10 μmol/kg/day i.p. 5 or 6 days, 48 hours training-test interval) was “higher than 50%”.
